# According to US20100173827A1, “ROLE OF PROLINE RICH PEPTIDES IN CELLULAR COMMUNICATION MECHANISMS AND TREATMENT OF DISEASES” (priority 2008, published 2010):
# Legend:
# [1] = tested on: immobilized gamma globulin (IgG-2); test: Adsorption and desorption of ovine PRPC peptides on immobilized IgG-2 column, ELISA titer; assay type: binding; settings: for Titer in pool: starting material, ELISA with mono-specific anti peptide antibody; for Desorbs (pH 5.0): titer in material eluted in pH 5.0 buffer; for Not adsorbed: titer in material not adsorbed on immobilized IgG-2 column at neutral pH
# Experimental: The ovine PRPC purified as described earlier was applied on immobilized IgG-2 column at neutral pH and eluted in pH 5.0 buffer. The starting materials not adsorbed and eluted materials were tested for the presence of selected peptides by an ELISA method, using mono-specific anti peptide antibody.
# Changing the pH 7.0 of the IgG column by the elution buffer of pH 5.0 releases the peptides from the immobilized gamma globulin. Since the interaction between gamma globulin and peptide is not specific, the adsorption and desorption of the peptides from PRPC confirm theory concerning storage facility No II. Furthermore, the finding supports the hypothesis that binding the triplets to macromolecule represents the new mechanism used by host to transport triplets to new cells.
# rabbits = test: Immunization of rabbits with peptide antigens, antibody titer in sera; assay type: in vivo, rabbit; settings: for Post immunization titers: estimated titer of the antibodies in sera from the immunized rabbits; for Before immunization: titer of the antibodies in rabbit sera before immunization
# From the text: The basic problem in preparation antibody for triplets and PRPC peptides is the size of antigen use for immunization purposes. Triplets by definition are made from three amino acids. Under normal condition such peptides are too small to induce the antibody production. The monospecific antibodies, however, can be made by presenting the antigen in the form of a single amino acid as an annealed antigen. The annealed antigen can be made from the same amino acid. In other approach it is possible to increase the size of antigen by repeating the same motif several times. Formation of the annealing polymer will overcome the difficulties connected with the antigen (peptide) for antibody production.
# In order to make annealing it is necessary sometimes, to add to peptide empty (not active immunological) amino acids. The strategy used for production antibodies included both variants and addition of the complete Freund adjuvant. The mono-specific antibodies against various ovine PRPC antigens were prepared on rabbits. The larger animals like sheep, goat, or horse may also be utilized. Two rabbits were selected for each natural antigen.
# [2] = Scavenger activity in Spin trap Electromagnetic resonance; assay type: biochemical; settings: for Scavenger Activity: Spin trap Electromagnetic resonance
# Experimental: (§1) The studies leading to discovery the mechanism protecting signals was already described earlier and is repeated here in Table 11. Amino acids QT, V, and DG may serve as an example of PRP protector present in CN V. The identified peptides were synthesized by BIO-[…] Inc. Lewisville Tex. USA. Peptides were purified in to 99% of purity their amino acid sequences were confirmed. The scavengers activity ware tested in Spin trap Electromagnetic resonance and their effect on the amyloid formation was tested on adult Lewis rats exposed to induced hypoxia. […] If small structural changes in carrier peptides lead to activation their biological activity, similar changes may suppress activity or even terminate the signal. This important property is called feed back signal. Similar type of signals ought to operate within PRPC III and PRPC IV network or are coded in CN V. In Table 12 are listed peptides that may be considered as terminating signals.
# amyloid formation = test: Amyloid formation in adult Lewis rats exposed to induced hypoxia; assay type: in vivo; settings: grades 0 to +++++, key not given
# Experimental: as §1
Substance,Post immunization titers (rabbits),Before immunization (rabbits),other results
"AFLLYQEPVLGPV [D-1, ID NO.: 40]",–,–,Titer in pool [1]: 9300; Desorbs (pH 5.0) [1]: 6400; Not adsorbed [1]: 200
AFLLYQEPVLGPV [SEQ. ID. NO.: 40],">25,000",0,–
DLEMPVLPVEPFPFV (Ovis aries) [SEQ. ID. NO.: 16],">25,000",0,–
DPPPPQS (Ovis aries) [SEQ. ID. NO.: 6],"6,400",0,–
"DQPPDVEKPDLQPFQVQS (Ovis aries) [B-9, ID NO.: 19]",–,–,Titer in pool [1]: 2075; Desorbs (pH 5.0) [1]: >25600; Not adsorbed [1]: 0
DQPPDVEKPDLQPFQVQS (Ovis aries) [SEQ. ID. NO.: 19],">25,000",0,–
DSQPPV (Ovis aries) [SEQ. ID. NO.: 14],">25,000",0,–
EMPFPKY (Ovis aries) [SEQ. ID. NO.: 21],">25,000",0,–
FPPPK (Ovis aries) [SEQ. ID. NO.: 15],">25,000",0,–
HKEMPFPKYPVEPFTESQ [SEQ. ID NO.: 28],–,–,Free radical scavenger property (in words) [2]: powerful free radicals scavengers
LFFFLPVVNVLP (Ovis aries) [SEQ. ID. NO.: 17],">25,000",0,–
LKPFPKLKVEVFPFP (Ovis aries) [SEQ. ID. NO.: 4],">25,600",0,–
LPPNVG (Ovis aries) [SEQ. ID. NO.: 12],">25,000",0,–
LQTPQPLLQVMMEPQGD (Ovis aries) [SEQ. ID. NO.: 1],"12,800",0,Titer in pool [1]: 5400; Desorbs (pH 5.0) [1]: 3200; Not adsorbed [1]: 800; Scavenger Activity [2]: 11%; Inhibit Amyloid Formation (amyloid formation): 0
"LSQPKVLPVPQKAVPKPDMPIQ [C-11, ID NO.: 34]",–,–,Titer in pool [1]: 15400; Desorbs (pH 5.0) [1]: >25600; Not adsorbed [1]: 400
LSQPKVLPVPQKAVPKPDMPIQ [SEQ. ID NO.: 34],–,–,Free radical scavenger property (in words) [2]: powerful free radicals scavengers
LVYPFTGPIPNSLPQNILP (Ovis aries) [SEQ. ID. NO.: 20],">25,000",0,–
MPQNFYKLPQM (Ovis aries) [SEQ. ID. NO.: 2],">25,600",0,–
"MQPPPLP (Ovis aries) [B-8, ID NO.: 18]",–,–,Titer in pool [1]: 9000; Desorbs (pH 5.0) [1]: 12800; Not adsorbed [1]: 400
MQPPPLP (Ovis aries) [SEQ. ID. NO.: 18],">25,000",0,–
QPLLQVMMEPQ (Ovis aries) [SEQ. ID NO.: 10],–,–,Scavenger Activity [2]: 75%
RGPTPILV,–,–,Free radical scavenger property (in words) [2]: powerful scavenger property
SEEMP (Ovis aries) [SEQ. ID. NO.: 13],">25,000",0,–
SEQP (Ovis aries) [SEQ. ID. NO.: 5],">25,600",0,–
"SPSLPQNIL [C-2, ID NO.: 25]",–,–,Titer in pool [1]: 5325; Desorbs (pH 5.0) [1]: 12800; Not adsorbed [1]: 0
SPSLPQNIL [SEQ. ID NO.: 25],–,–,Free radical scavenger property (in words) [2]: powerful free radicals scavengers
"VLEMKFPPPPQETVT (Ovis aries) [A-3, ID NO.: 3]",–,–,Titer in pool [1]: 1350; Desorbs (pH 5.0) [1]: 6400; Not adsorbed [1]: 400
VLEMKFPPPPQETVT (Ovis aries) [SEQ. ID. NO.: 3],"12,800",0,–
VYPFPGPIN [SEQ. ID NO.: 24],–,–,Free radical scavenger property (in words) [2]: powerful free radicals scavengers
